Like-named read-outs stand apart in the source and are kept apart here.
Target: T1, EZH2 protein in LS174T cells (Homo sapiens, UniProt Q15910)
T1 construct: endogenous in cells; host or cells: LS174T
Assay: Proteolytic effect in colorectal cancer cells (Western blotting)
Format: cell-based
Protocol: After 72 hours of the treatment, the cells were collected and lysed using RIPA buffer (50 mM Tris, pH 7.5, 150 mM NaCl, 1% Triton X-100, 0.1% SDS, […], 0.5% deoxycholate, and protease inhibitor cocktail), followed by sonication (30 sec on/30 sec off, 5 cycles) to prepare a cell lysate.

[1] = EZH2 protein, LS174T cells, 1 μM, 72 hours
[2] = EZH2 protein, LS174T cells, 1 uM, 72 hours, Western blotting

T1 sequence (Q15910 whole entry): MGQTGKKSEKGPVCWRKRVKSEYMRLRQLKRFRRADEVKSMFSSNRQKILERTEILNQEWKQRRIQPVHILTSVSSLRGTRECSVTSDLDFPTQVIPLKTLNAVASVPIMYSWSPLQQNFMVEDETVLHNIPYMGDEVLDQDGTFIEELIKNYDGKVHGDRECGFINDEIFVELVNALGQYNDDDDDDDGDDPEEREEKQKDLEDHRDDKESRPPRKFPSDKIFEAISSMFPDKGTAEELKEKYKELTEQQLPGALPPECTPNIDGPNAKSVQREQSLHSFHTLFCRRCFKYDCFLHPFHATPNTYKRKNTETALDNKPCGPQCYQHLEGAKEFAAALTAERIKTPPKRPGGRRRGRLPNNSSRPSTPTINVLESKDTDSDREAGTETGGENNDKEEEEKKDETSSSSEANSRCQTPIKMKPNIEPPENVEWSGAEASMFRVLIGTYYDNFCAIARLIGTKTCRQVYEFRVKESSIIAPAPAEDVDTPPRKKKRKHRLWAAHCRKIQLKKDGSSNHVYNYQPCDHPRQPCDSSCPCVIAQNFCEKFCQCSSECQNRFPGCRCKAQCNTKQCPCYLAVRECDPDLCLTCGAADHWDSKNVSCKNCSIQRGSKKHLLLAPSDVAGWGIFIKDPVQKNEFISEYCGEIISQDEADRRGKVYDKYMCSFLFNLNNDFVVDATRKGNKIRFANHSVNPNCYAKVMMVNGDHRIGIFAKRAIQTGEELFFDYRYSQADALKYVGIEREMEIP
T1 sequence (O75530 whole entry partner): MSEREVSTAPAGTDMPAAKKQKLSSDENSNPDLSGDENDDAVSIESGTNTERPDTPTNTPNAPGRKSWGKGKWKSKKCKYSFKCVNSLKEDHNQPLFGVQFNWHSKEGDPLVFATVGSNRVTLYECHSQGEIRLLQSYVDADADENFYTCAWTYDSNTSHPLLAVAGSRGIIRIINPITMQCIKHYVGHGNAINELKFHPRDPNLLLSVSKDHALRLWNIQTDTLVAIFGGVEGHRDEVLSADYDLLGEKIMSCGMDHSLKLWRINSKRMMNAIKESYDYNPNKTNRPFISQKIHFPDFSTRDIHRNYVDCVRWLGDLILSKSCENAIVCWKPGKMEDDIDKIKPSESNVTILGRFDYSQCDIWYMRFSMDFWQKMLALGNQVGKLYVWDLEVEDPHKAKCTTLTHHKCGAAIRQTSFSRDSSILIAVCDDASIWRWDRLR
T1 sequence (Q15022 whole entry partner): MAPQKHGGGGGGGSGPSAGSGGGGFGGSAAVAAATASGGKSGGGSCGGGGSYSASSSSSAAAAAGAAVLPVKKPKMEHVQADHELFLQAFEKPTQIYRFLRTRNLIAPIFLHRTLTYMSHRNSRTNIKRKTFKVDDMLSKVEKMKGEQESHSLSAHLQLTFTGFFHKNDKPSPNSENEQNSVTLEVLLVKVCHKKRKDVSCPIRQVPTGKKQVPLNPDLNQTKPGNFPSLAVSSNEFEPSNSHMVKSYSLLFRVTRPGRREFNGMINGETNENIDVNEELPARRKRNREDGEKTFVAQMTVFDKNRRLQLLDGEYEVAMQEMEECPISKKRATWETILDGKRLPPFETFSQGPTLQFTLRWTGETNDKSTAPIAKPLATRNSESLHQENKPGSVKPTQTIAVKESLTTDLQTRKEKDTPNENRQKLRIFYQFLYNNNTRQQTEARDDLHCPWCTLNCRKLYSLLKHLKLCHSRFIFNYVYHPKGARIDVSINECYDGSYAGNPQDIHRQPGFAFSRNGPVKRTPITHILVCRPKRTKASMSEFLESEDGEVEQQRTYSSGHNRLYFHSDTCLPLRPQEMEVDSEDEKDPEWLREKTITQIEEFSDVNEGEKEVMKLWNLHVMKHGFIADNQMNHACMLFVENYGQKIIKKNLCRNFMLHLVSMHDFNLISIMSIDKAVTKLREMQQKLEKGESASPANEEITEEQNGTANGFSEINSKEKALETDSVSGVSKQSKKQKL

| SMILES | Grade (percent value of the protein degradation when treated with 1 μM) [1] | %, degradation at 1 uM [2] | %, degradation at 1 uM | Grade (percent value of the protein degradation when treated with 1 μM) |
| --- | --- | --- | --- | --- |
| CCN(c1cc(-c2ccc(CN3CCN(CC(=O)NCCOCCCNc4cccc5c4C(=O)N(C4CCC(=O)NC4=O)C5=O)CC3)cc2)cc(C(=O)NCc2c(C)cc(C)[nH]c2=O)c1C)C1CCOCC1 (stereo not drawn) [Example 16, N-((4,6-dimethyl-2-oxo-1,2-dihydropyridine-3-yl)methyl)-4′-((4-(2-((2-(3-((2-(2,6-dioxopiperidine-3-yl)-1,3-dioxoisoindoline-4-yl)amino)propoxy)ethyl)amino)-2-oxoethyl)piperazine-1-yl)methyl)-5-(ethyl(tetrahydro-2H-pyran-4-yl)amino)-4-methyl-[1,1′-biphenyl]-3-carboxamide] |  |  | 5.51% | D (key: A: >75%; B: 50-75%; C: 25-50%; D: <25%) |
| CCN(c1cc(-c2ccc(CN3CCN(CC(=O)NCCCCCOCCCOCCC(=O)N[C@H](C(=O)N4C[C@H](O)C[C@H]4C(=O)NCc4ccc(-c5scnc5C)cc4)C(C)(C)C)CC3)cc2)cc(C(=O)NCc2c(C)cc(C)[nH]c2=O)c1C)C1CCOCC1 [Example 43, (2S,4R)-1-((S)-2-(tert-butyl)-19-(4-((3′-(((4,6-dimethyl-2-oxo-1,2-dihydropyridine-3-yl)methyl)carbamoyl)-5′-(ethyl(tetrahydro-2H-pyran-4-yl)amino)-4′-methyl-[1,1′-biphenyl]-4-yl)methyl)piperazine-1-yl)-4,18-dioxo-7,11-dioxa-3,17-diazanonadecanoyl)-4-hydroxy-N-(4-(4-methylthiazole-5-yl)benzyl)pyrrolidine-2-carboxamide] | B (50-75%) | 67.12% |  |  |
| CCN(c1cc(-c2ccc(CN3CCN(CC(=O)NCCN4CCN(CCNc5cccc6c5C(=O)N(C5CCC(=O)NC5=O)C6=O)CC4)CC3)cc2)cc(C(=O)NCc2c(C)cc(C)[nH]c2=O)c1C)C1CCOCC1 (stereo not drawn) [Example 29, N-((4,6-dimethyl-2-oxo-1,2-dihydropyridine-3-yl)methyl)-4′-((4-(2-((2-(4-(2-((2-(2,6-dioxopiperidine-3-yl)-1,3-dioxoisoindoline-4-yl)amino)ethyl)piperazine-1-yl)ethyl)amino)-2-oxoethyl)piperazine-1-yl)methyl)-5-(ethyl(tetrahydro-2H-pyran-4-yl)amino)-4-methyl-[1,1′-biphenyl]-3-carboxamide] | D (<25%) | 0% |  |  |
| CCN(c1cc(-c2ccc(CN3CCN(CC(=O)N4CCC5(CCN(CCCCNc6cccc7c6C(=O)N(C6CCC(=O)NC6=O)C7=O)C5)C4)CC3)cc2)cc(C(=O)NCc2c(C)cc(C)[nH]c2=O)c1C)C1CCOCC1 (stereo not drawn) [Example 34, N-((4,6-dimethyl-2-oxo-1,2-dihydropyridine-3-yl)methyl)-4′-((4-(2-(7-(4-((2-(2,6-dioxopiperidine-3-yl)-1,3-dioxoisoindoline-4-yl)amino)butyl)-2,7-diazaspiro[4.4]nonane-2-yl)-2-oxoethyl)piperazine-1-yl)methyl)-5-(ethyl(tetrahydro-2H-pyran-4-yl)amino)-4-methyl-[1,1′-biphenyl]-3-carboxamide] | D (<25%) | 0% |  |  |
| CCN(c1cc(-c2ccc(CN3CCN(CC(=O)N4CC5(CN(CCCCNc6cccc7c6C(=O)N(C6CCC(=O)NC6=O)C7=O)C5)C4)CC3)cc2)cc(C(=O)NCc2c(C)cc(C)[nH]c2=O)c1C)C1CCOCC1 (stereo not drawn) [Example 35, N-((4,6-dimethyl-2-oxo-1,2-dihydropyridine-3-yl)methyl)-4′-((4-(2-(6-(4-((2-(2,6-dioxopiperidine-3-yl)-1,3-dioxoisoindoline-4-yl)amino)butyl)-2,6-diazaspiro[3.3]heptane-2-yl)-2-oxoethyl)piperazine-1-yl)methyl)-5-(ethyl(tetrahydro-2H-pyran-4-yl)amino)-4-methyl-[1,1′-biphenyl]-3-carboxamide] | D (<25%) | 0% |  |  |

More lines, main results first:

| Grade (percent value of the protein degradation when treated with 1 μM) [1] | %, degradation at 1 uM [2] | SMILES | %, degradation at 1 uM | Grade (percent value of the protein degradation when treated with 1 μM) |
| --- | --- | --- | --- | --- |
| D (<25%) | 2.91% | CCN(c1cc(-c2ccc(CN3CCN(CC(=O)NCCCCCCOc4cccc5c4C(=O)N(C4CCC(=O)NC4=O)C5=O)CC3)cc2)cc(C(=O)NCc2c(C)cc(C)[nH]c2=O)c1C)C1CCOCC1 (stereo not drawn) [Example 8, N-((4,6-dimethyl-2-oxo-1,2-dihydropyridine-3-yl)methyl)-4′-((4-(2-((6-((2-(2,6-dioxopiperidine-3-yl)-1,3-dioxoisoindoline-4-yl)oxy)hexyl)amino)-2-oxoethyl)piperazine-1-yl)methyl)-5-(ethyl(tetrahydro-2H-pyran-4-yl)amino)-4-methyl-[1,1′-biphenyl]-3-carboxamide] |  |  |
| D (<25%) | 18.10% | CCN(c1cc(-c2ccc(CN3CCN(CCCCCNc4cccc5c4C(=O)N(C4CCC(=O)NC4=O)C5=O)CC3)cc2)cc(C(=O)NCc2c(C)cc(C)[nH]c2=O)c1C)C1CCOCC1 (stereo not drawn) [Example 2, N-((4,6-dimethyl-2-oxo-1,2-dihydropyridine-3-yl)methyl)-4′-((4-(5-((2-(2,6-dioxopiperidine-3-yl)-1,3-dioxoisoindoline-4-yl)amino)pentyl)piperazine-1-yl)methyl)-5-(ethyl(tetrahydro-2H-pyran-4-yl)amino)-4-methyl-[1,1′-biphenyl]-3-carboxamide] |  |  |
| D (<25%) | 0% | CCN(c1cc(-c2ccc(CN3CCN(CC(=O)NCCOc4cccc5c4C(=O)N(C4CCC(=O)NC4=O)C5=O)CC3)cc2)cc(C(=O)NCc2c(C)cc(C)[nH]c2=O)c1C)C1CCOCC1 (stereo not drawn) [Example 5, N-((4,6-dimethyl-2-oxo-1,2-dihydropyridine-3-yl)methyl)-4′-((4-(2-((2-((2-(2,6-dioxopiperidine-3-yl)-1,3-dioxoisoindoline-4-yl)oxy)ethyl)amino)-2-oxoethyl)piperazine-1-yl)methyl)-5-(ethyl(tetrahydro-2H-pyran-4-yl)amino)-4-methyl-[1,1′-biphenyl]-3-carboxamide] |  |  |
| D (<25%) | 0% | CCN(c1cc(-c2ccc(CN3CCN(CCCCCCCOc4cccc5c4C(=O)N(C4CCC(=O)NC4=O)C5=O)CC3)cc2)cc(C(=O)NCc2c(C)cc(C)[nH]c2=O)c1C)C1CCOCC1 (stereo not drawn) [Example 10, N-((4,6-dimethyl-2-oxo-1,2-dihydropyridine-3-yl)methyl)-4′-((4-(7-((2-(2,6-dioxopiperidine-3-yl)-1,3-dioxoisoindoline-4-yl)oxy)heptyl)piperazine-1-yl)methyl)-5-(ethyl(tetrahydro-2H-pyran-4-yl)amino)-4-methyl-[1,1′-biphenyl]-3-carboxamide] |  |  |

Source: patent US12502434B2, “Compound comprising EZH2 inhibitor and E3 ligase binder and pharmaceutical composition for preventing or treating EZH2-associated disease comprising same as active ingredient” (DAEGU-GYEONGBUK MEDICAL INNOVATION FOUNDATION, priority 2019, dated 2025)
